The values that follow come from patent US20240116985A1, “STAPLED PEPTIDES AND METHODS THEREOF” (priority 2020, published 2024).

The target in assay [1] is T1, full-length beta-Catenin (Uniprot ID P35222) (Homo sapiens, UniProt P35222).
T1 construct: 10 nM full-length beta-Catenin (Uniprot ID P35222)
T1 sequence (P35222 1-781): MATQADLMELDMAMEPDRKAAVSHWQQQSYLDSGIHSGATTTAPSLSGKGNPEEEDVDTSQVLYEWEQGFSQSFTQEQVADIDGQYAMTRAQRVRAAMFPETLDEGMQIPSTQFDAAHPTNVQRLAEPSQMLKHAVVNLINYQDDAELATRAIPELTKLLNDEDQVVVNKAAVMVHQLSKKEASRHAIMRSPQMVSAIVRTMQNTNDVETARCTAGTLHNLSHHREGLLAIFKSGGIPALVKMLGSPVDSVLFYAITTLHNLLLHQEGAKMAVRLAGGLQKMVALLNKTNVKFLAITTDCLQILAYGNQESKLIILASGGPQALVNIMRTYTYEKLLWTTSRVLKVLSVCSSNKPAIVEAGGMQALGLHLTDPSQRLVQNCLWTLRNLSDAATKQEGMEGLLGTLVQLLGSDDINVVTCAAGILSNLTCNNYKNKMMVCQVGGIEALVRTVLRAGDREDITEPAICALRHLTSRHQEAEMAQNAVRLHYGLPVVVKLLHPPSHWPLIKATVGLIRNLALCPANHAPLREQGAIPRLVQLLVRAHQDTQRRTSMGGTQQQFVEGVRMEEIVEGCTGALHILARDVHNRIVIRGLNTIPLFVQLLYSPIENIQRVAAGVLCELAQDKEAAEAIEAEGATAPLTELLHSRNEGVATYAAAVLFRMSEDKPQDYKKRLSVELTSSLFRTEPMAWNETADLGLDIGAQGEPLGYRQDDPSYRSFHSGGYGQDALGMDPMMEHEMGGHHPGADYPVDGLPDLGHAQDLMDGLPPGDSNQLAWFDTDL
Description: Fluorescence polarization IC50 (beta-catenin / 5FAM-TCF4 10-53 competition). It counts as binding. The note with it: fluorescence polarization; read-out: beta-Catenin FP IC50. (In general: In fluorescence polarisation assays a small probe gives low polarisation when free and higher when bound to something large.)

The target in assay [2] is T2, beta-catenin/TCF4 engagement (Homo sapiens, UniProt P35222).
T2 construct: expressed in transfected cells; host or cells: HEK293
T2 sequence (P35222 1-781): T1 sequence (P35222 1-781)
As to the kind of experiment: Nano-BRET target engagement assay (B-cat-Halo & TCF4-Luc in HEK293 cells). The settings on record: absolute IC50; read-out: NanoBRET Abs IC50. It counts as cell-based.

A value given as a limit tells only on which side of the number the result lay.

Broadly, the IC50 is the concentration that gives 50% inhibition. In the case of `CCN(CC(=O)O)C[C@@H]1NC(=O)[C@H](CC(=O)O)NC(=O)C2(CCCC=CCCCOC(=O)N3CC[C@@](C(=O)N[C@@H](Cc4ccccc4Cl)C(=O)N[C@@H](Cc4csc5ccccc45)C(=O)N[C@@H](CCC(N)=O)C(N)=O)(C3)NC(=O)[C@H](CC(N)=O)NC(=O)[C@H](Cc3ccccc3)NC(=O)[C@H](C)NC(=O)[C@H](C)NC1=O)CCCC=CC[C@]1(CCCN1C(C)=O)C(=O)N[C@@H](CC(=O)O)C(=O)N[C@@H](CC(C)(C)C)C(=O)N2` (stereo partly drawn) [I-1622, Ac-PL3-Asp-Npg-B5-Asp-[Et]GA-Ala-Ala-Phe-Asn-PyrS2-2C1F-BztA-Gln-NH2], the 50% inhibitory concentration (IC50) was 13 nM in assay [1] and more than 20 µM in assay [2].

`CC(=O)N1CCC[C@]12CC=CCCCC1(CCCC=CCCCCCC[C@@](C)(C(=O)N[C@@H](Cc3ccsc3)C(=O)N[C@@H](Cc3csc4ccccc34)C(=O)N[C@@H](CCC(N)=O)C(N)=O)NC(=O)[C@H](CC(N)=O)NC(=O)[C@H](Cc3ccccc3)NC(=O)[C@H](C)NC(=O)[C@H](C)NC(=O)[C@H](CN(CCC(F)(F)F)CC(=O)O)NC(=O)[C@H](CC(=O)O)NC1=O)NC(=O)[C@H](CC(C)(C)C)NC(=O)[C@H](CC(=O)O)NC2=O` (stereo partly drawn) [I-1625, Ac-PL3-Asp-Npg-B5-Asp-[Tfp]GA-Ala-Ala-Phe-Asn-S8-3Thi-BztA-Gln-NH2]: the results for the 50% inhibitory concentration (IC50) in assay [1] and in assay [2] were 52.5 nM and 29.3 µM, respectively.

As to `CCN(CC(=O)O)C[C@@H]1NC(=O)[C@H](CC(=O)O)NC(=O)C2(CCCC=CCCCCCC[C@@](C)(C(=O)N[C@@H](Cc3ccsc3)C(=O)N[C@@H](Cc3csc4ccccc34)C(=O)N[C@@H](CCC(N)=O)C(N)=O)NC(=O)[C@H](CC(N)=O)NC(=O)[C@H](Cc3ccccc3)NC(=O)[C@H](C)NC(=O)[C@H](C)NC1=O)CCCC=CC[C@]1(CCCN1C(C)=O)C(=O)N[C@@H](CC(=O)O)C(=O)N[C@@H](CC(C)(C)C)C(=O)N2` (stereo partly drawn) [I-1627, Ac-PL3-Asp-Npg-B5-Asp-[Et]GA-Ala-Ala-Phe-Asn-S8-3Thi-BztA-Gln-NH2], the IC50 was 57 nM in assay [1] and more than 20 µM in assay [2].

Take `CCN(CC(=O)O)C[C@@H]1NC(=O)[C@H](CC(=O)O)NC(=O)C2(CCCC=CCCCCCC[C@@](C)(C(=O)N[C@@H](Cc3ccsc3)C(=O)N[C@@H](Cc3csc4ccccc34)C(=O)N[C@@H](CCC(N)=O)C(N)=O)NC(=O)[C@H](CC(N)=O)NC(=O)[C@H](Cc3ccccc3)NC(=O)[C@H](C)NC(=O)[C@H](C)NC1=O)CCCC=CC[C@]1(CCCN1C(C)=O)C(=O)N[C@@H](CC(=O)O)C(=O)N[C@@H](CC(C)(C)C)C(=O)N2` (stereo partly drawn) [I-1628, Ac-PL3-Asp-Npg-B5-Asp-[Et]GA-Ala-Ala-Phe-Asn-S8-3Thi-BztA-Gln-NH2]: the results for the half-maximal inhibitory concentration (IC50) in assay [1] and in assay [2] were 18 nM and more than 20 µM, respectively.

Regarding `CC(=O)N1CCC[C@]12CC=CCCCC1(CCCC=CCCCOC(=O)N3CC[C@@](C(=O)N[C@@H](Cc4ccsc4)C(=O)N[C@@H](Cc4csc5ccccc45)C(=O)N[C@@H](CCC(N)=O)C(N)=O)(C3)NC(=O)[C@H](CC(C)C)NC(=O)[C@H](Cc3ccccc3)NC(=O)[C@H](C)NC(=O)[C@H](C)NC(=O)[C@H](CN(CC(=O)O)Cc3ccccc3)NC(=O)[C@H](CC(=O)O)NC1=O)NC(=O)[C@H](CC(C)(C)C)NC(=O)[C@H](CC(=O)O)NC2=O` (stereo partly drawn) [I-1630, Ac-PL3-Asp-Npg-B5-Asp-[Bn]GA-Ala-Ala-Phe-Leu-PyrS2-3Thi-BztA-Gln-NH2], the 50% inhibitory concentration (IC50) was 11.5 nM in assay [1] and 5 µM in assay [2].

Take `CC(=O)N1CCC[C@]12CC=CCCCC1(CCCC=CCCCOC(=O)N3CC[C@@](C(=O)N[C@@H](Cc4ccsc4)C(=O)N[C@@H](Cc4csc5ccccc45)C(=O)N[C@@H](CCC(N)=O)C(N)=O)(C3)NC(=O)[C@H](CC(C)C)NC(=O)[C@H](Cc3ccccc3)NC(=O)[C@H](C)NC(=O)[C@H](C)NC(=O)[C@H](CN(C)CC(=O)O)NC(=O)[C@H](CC(=O)O)NC1=O)NC(=O)[C@H](CC(C)(C)C)NC(=O)[C@H](CC(=O)O)NC2=O` (stereo partly drawn) [I-1631, Ac-PL3-Asp-Npg-B5-Asp-[Me]GA-Ala-Ala-Phe-Leu-PyrS2-3Thi-BztA-Gln-NH2]: the half-inhibitory concentration (IC50) in assay [1] was found to be 10 nM; in assay [2], 30.1 µM.

As to `CC(=O)N1CCC[C@]12CC=CCCCC1(CCCC=CCCCOC(=O)N3CC[C@@](C(=O)N[C@@H](Cc4ccsc4)C(=O)N[C@@H](Cc4csc5ccccc45)C(=O)N[C@@H](CCC(N)=O)C(N)=O)(C3)NC(=O)[C@H](CC(C)C)NC(=O)[C@H](Cc3ccccc3)NC(=O)[C@H](C)NC(=O)[C@H](C)NC(=O)[C@H](CN(CCC(F)(F)F)CC(=O)O)NC(=O)[C@H](CC(=O)O)NC1=O)NC(=O)[C@H](CC(C)(C)C)NC(=O)[C@H](CC(=O)O)NC2=O` (stereo partly drawn) [I-1633, Ac-PL3-Asp-Npg-B5-Asp-[Tfp]GA-Ala-Ala-Phe-Leu-PyrS2-3Thi-BztA-Gln-NH2], the 50% inhibitory concentration (IC50) worked out at 10 nM in assay [1] and 5.2 µM in assay [2].

With `CC(=O)N1CCC[C@]12CC=CCCCC1(CCCC=CCCCOC(=O)N3CC[C@@](C(=O)N[C@@H](Cc4ccsc4)C(=O)N[C@@H](Cc4csc5ccccc45)C(=O)N[C@@H](CCC(N)=O)C(N)=O)(C3)NC(=O)[C@H](CC(N)=O)NC(=O)[C@H](Cc3ccccc3)NC(=O)[C@H](C)NC(=O)[C@H](C)NC(=O)[C@H](CN(CCCC(F)(F)F)CC(=O)O)NC(=O)[C@H](CC(=O)O)NC1=O)NC(=O)[C@H](CC(C)(C)C)NC(=O)[C@H](CC(=O)O)NC2=O` (stereo partly drawn) [I-1634, Ac-PL3-Asp-Npg-B5-Asp-[Tfb]GA-Ala-Ala-Phe-Asn-PyrS2-3Thi-BztA-Gln-NH2], the 50% inhibitory concentration (IC50) in assay [1] came out at 9 nM; in assay [2], 16.5 µM.

Consider `CC(=O)N1CCC[C@]12CC=CCCCC1(CCCC=CCCCOC(=O)N3CC[C@@](C(=O)N[C@@H](Cc4ccsc4)C(=O)N[C@@H](Cc4csc5ccccc45)C(=O)N[C@@H](CCC(N)=O)C(N)=O)(C3)NC(=O)[C@H](CC(N)=O)NC(=O)[C@H](Cc3ccccc3)NC(=O)[C@H](C)NC(=O)[C@H](C)NC(=O)[C@H](CN(CC(=O)O)Cc3ccccc3)NC(=O)[C@H](CC(=O)O)NC1=O)NC(=O)[C@H](CC(C)(C)C)NC(=O)[C@H](CC(=O)O)NC2=O` (stereo partly drawn) [I-1635, Ac-PL3-Asp-Npg-B5-Asp-[Bn]GA-Ala-Ala-Phe-Asn-PyrS2-3Thi-BztA-Gln-NH2], for which the figures for the half-maximal inhibitory concentration (IC50) in assay [1] and in assay [2] were 7 nM and 20.6 µM, respectively.

Consider `CC(=O)N1CCC[C@]12CC=CCCCC1(CCCC=CCCCOC(=O)N3CC[C@@](C(=O)N[C@@H](Cc4ccsc4)C(=O)N[C@@H](Cc4csc5ccccc45)C(=O)N[C@@H](CCC(N)=O)C(N)=O)(C3)NC(=O)[C@H](CC(N)=O)NC(=O)[C@H](Cc3ccccc3)NC(=O)[C@H](C)NC(=O)[C@H](C)NC(=O)[C@H](CN(C)CC(=O)O)NC(=O)[C@H](CC(=O)O)NC1=O)NC(=O)[C@H](CC(C)(C)C)NC(=O)[C@H](CC(=O)O)NC2=O` (stereo partly drawn) [I-1636, Ac-PL3-Asp-Npg-B5-Asp-[Me]GA-Ala-Ala-Phe-Asn-PyrS2-3Thi-BztA-Gln-NH2], for which the IC50 in assay [1] was 17 nM; in assay [2] it was more than 20 µM.

On to `CC(=O)N1CCC[C@]12CC=CCCCC1(CCCC=CCCCOC(=O)N3CC[C@@](C(=O)N[C@@H](Cc4ccsc4)C(=O)N[C@@H](Cc4csc5ccccc45)C(=O)N[C@@H](CCC(N)=O)C(N)=O)(C3)NC(=O)[C@H](CC(N)=O)NC(=O)[C@H](Cc3ccccc3)NC(=O)[C@H](C)NC(=O)[C@H](C)NC(=O)[C@H](CN(C)CC(=O)O)NC(=O)[C@H](CC(=O)O)NC1=O)NC(=O)[C@H](CC(C)(C)C)NC(=O)[C@H](CC(=O)O)NC2=O` (stereo partly drawn) [I-1637, Ac-PL3-Asp-Npg-B5-Asp-[Me]GA-Ala-Ala-Phe-Asn-PyrS2-3Thi-BztA-Gln-NH2], for which the IC50 in assay [1] was 11 nM; in assay [2] it was more than 20 µM.

Regarding `CC(=O)N1CCC[C@]12CC=CCCCC1(CCCC=CCCCOC(=O)N3CC[C@@](C(=O)N[C@@H](Cc4ccsc4)C(=O)N[C@@H](Cc4csc5ccccc45)C(=O)N[C@@H](CCC(N)=O)C(N)=O)(C3)NC(=O)[C@H](CC(N)=O)NC(=O)[C@H](Cc3ccccc3)NC(=O)[C@H](C)NC(=O)[C@H](C)NC(=O)[C@H](CN(CC(=O)O)Cc3c(F)c(F)c(F)c(F)c3F)NC(=O)[C@H](CC(=O)O)NC1=O)NC(=O)[C@H](CC(C)(C)C)NC(=O)[C@H](CC(=O)O)NC2=O` (stereo partly drawn) [I-1638, Ac-PL3-Asp-Npg-B5-Asp-[Pfbn]GA-Ala-Ala-Phe-Asn-PyrS2-3Thi-BztA-Gln-NH2], the concentration for half-maximal inhibition (IC50) in assay [1] was determined as 9 nM; in assay [2], 14.5 µM.

In the case of `CC(=O)N1CCC[C@]12CC=CCCCC1(CCCC=CCCCOC(=O)N3CC[C@@](C(=O)N[C@@H](Cc4ccsc4)C(=O)N[C@@H](Cc4csc5ccccc45)C(=O)N[C@@H](CCC(N)=O)C(N)=O)(C3)NC(=O)[C@H](CC(N)=O)NC(=O)[C@H](Cc3ccccc3)NC(=O)[C@H](C)NC(=O)[C@H](C)NC(=O)[C@H](CN(CC(=O)O)Cc3c(F)c(F)c(F)c(F)c3F)NC(=O)[C@H](CC(=O)O)NC1=O)NC(=O)[C@H](CC(C)(C)C)NC(=O)[C@H](CC(=O)O)NC2=O` (stereo partly drawn) [I-1639, Ac-PL3-Asp-Npg-B5-Asp-[Pfbn]GA-Ala-Ala-Phe-Asn-PyrS2-3Thi-BztA-Gln-NH2], the IC50 in assay [1] is 13 nM; in assay [2], 32.9 µM.
